Like-named read-outs stand apart in the source and are kept apart here. Bounds are passed on as bounds.

One test has as its system S. flexneri (BS103). It counts as cell-based, Shigella flexneri.
The next test deals with MRSA (USA 300). It counts as cell-based, S. aureus.
Test [1] has as its system B. anthracis (Sterne 34F2). It counts as cell-based.
A further test concerns S. aureus (Newman). It counts as cell-based.
For another test, the system named is S. typhimurium. It counts as cell-based, Salmonella typhimurium.
For a further test, the target named is AsbB (Bacillus anthracis, UniProt Q81RQ8). It counts as biochemical, B. anthracis. The settings on record: for IC50: read-out: IC50 against AsbB.
Sequence of AsbB (Q81RQ8 whole entry, looked up): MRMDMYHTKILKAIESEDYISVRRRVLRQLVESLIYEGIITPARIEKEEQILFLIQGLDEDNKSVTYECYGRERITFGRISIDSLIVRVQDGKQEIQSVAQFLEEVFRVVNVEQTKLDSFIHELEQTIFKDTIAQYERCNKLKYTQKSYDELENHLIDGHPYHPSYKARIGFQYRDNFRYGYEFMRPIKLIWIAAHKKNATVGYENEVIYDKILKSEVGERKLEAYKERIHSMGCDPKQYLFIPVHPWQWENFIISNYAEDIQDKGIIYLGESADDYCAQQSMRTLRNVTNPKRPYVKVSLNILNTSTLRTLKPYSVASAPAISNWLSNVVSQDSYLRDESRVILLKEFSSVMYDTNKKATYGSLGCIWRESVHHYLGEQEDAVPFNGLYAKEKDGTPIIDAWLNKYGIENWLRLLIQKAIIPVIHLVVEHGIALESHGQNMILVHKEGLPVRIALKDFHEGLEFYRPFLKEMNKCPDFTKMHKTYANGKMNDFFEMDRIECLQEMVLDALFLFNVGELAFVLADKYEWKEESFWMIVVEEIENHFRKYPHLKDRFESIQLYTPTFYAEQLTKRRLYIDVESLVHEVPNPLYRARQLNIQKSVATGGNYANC
The target of test [2] is T1, SbnE (Staphylococcus aureus, UniProt Q2G1M9).
T1 sequence (Q2G1M9 1-578): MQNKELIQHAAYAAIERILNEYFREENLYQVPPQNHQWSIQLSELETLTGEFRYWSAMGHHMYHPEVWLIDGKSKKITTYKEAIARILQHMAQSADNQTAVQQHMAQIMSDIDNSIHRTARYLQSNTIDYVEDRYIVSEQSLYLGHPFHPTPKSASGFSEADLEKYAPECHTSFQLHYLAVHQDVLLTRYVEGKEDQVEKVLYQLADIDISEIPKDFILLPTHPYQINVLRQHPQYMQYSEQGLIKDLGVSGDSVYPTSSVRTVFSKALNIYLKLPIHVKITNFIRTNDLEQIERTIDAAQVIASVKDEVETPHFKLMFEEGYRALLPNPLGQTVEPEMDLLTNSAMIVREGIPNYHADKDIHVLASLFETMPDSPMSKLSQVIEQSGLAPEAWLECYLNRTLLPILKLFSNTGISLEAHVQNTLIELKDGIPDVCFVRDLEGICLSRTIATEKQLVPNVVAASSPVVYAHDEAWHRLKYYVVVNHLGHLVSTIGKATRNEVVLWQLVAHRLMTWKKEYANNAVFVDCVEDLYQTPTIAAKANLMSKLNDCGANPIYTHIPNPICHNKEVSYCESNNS
It counts as biochemical, S. aureus.

The target in test [3] is T1, SbnE. It counts as biochemical, S. aureus. The following applies: read-out: IC50 against SbnE.
For a further test, the system named is E. coli (MC 1061). It counts as cell-based.
The target in test [4] is T2, AsbA (Bacillus anthracis, UniProt A0A0F7RJ52). It counts as biochemical, B. anthracis.
T2 sequence (A0A0F7RJ52 whole entry, looked up): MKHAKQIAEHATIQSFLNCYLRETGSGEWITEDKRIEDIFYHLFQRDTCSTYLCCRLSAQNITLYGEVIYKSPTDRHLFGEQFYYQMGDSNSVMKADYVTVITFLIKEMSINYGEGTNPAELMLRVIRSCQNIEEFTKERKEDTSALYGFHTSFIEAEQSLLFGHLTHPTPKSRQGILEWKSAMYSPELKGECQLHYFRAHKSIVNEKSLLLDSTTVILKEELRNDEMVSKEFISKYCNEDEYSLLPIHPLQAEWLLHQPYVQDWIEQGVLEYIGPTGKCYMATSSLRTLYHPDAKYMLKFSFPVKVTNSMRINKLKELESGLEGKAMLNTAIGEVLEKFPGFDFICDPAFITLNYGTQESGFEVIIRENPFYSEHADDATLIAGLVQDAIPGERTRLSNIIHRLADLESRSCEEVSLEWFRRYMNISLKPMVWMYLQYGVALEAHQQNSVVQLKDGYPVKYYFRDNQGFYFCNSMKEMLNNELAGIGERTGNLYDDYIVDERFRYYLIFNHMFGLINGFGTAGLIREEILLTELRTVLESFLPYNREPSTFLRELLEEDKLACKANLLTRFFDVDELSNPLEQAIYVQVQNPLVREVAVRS
Test [5] concerns the target T2, AsbA. It counts as biochemical, B. anthracis. The following applies: read-out: IC50 against AsbA.

In the case of `CCC(=O)[C@H](C)C[C@@H](C)C[C@H](C)CC[C@@H](O)C[C@@H](O)[C@@H](CC(C)C)[C@@H](O)c1cc(O)cc(O)c1` [BmcA, baulamycin A], the IC50 (as a rule, the concentration needed to halve the response being measured) turned out to be 20 µM with S. flexneri (BS103) (read-out: IDM IC50, S. flexneri (BS103)); 46 µM in the test with S. flexneri (BS103) (read-out: IRM IC50, S. flexneri (BS103)); 130 µM with MRSA (USA 300) (read-out: IDM IC50, MRSA (USA 300)); 130 µM in the test on MRSA (USA 300) (read-out: IRM IC50, MRSA (USA 300)); 110 µM in test [1] (read-out: IDM IC50, B. anthracis (Sterne 34F2)); 120 µM in test [1] (read-out: IRM IC50, B. anthracis (Sterne 34F2)). In addition, the IC50 in the test on S. aureus (Newman) (read-out: IDM IC50, S. aureus (Newman)) was 69 µM; in the test on S. aureus (Newman) (read-out: IRM IC50, S. aureus (Newman)), 86 µM; in the test with S. typhimurium (read-out: IC50, S. typhimurium, iron-depleted conditions), over 1000 µM; with S. typhimurium (read-out: IC50, S. typhimurium, iron-rich conditions), over 1000 µM; in the test on S. typhimurium (read-out: IDM IC50, S. typhimurium), over 1000 µM; in the test on S. typhimurium (read-out: IRM IC50, S. typhimurium) it was over 1000 µM. Besides, the IC50 on AsbB is over 1000 µM; at SbnE [3], 4.8 µM; in the test with E. coli (MC 1061) (read-out: IDM IC50, E. coli (MC 1061)), 4.2 µM; in the test with E. coli (MC 1061) (read-out: IRM IC50, E. coli (MC 1061)), 150 µM; at AsbA [5] it was 180 µM. Moreover, the “inhibition against AsbB (in words)” value against AsbB is on record as “negligible”. The “mode of inhibition of SbnE” value on SbnE [2] is “reversible, competitive”. For the same compound, the Ki (in general, a dissociation constant, usually derived from enzyme kinetics or from competition with a known ligand) at SbnE [2] (read-out: Ki, SbnE, with respect to ATP) was 680 µM; at SbnE [2] (read-out: Ki, SbnE, with respect to citric acid) it was 50 µM; on SbnE [2] (read-out: Ki, SbnE, with respect to polyamine substrate), 210 µM; at AsbA [4] (read-out: Ki, AsbA, with respect to ATP), 230 µM; at AsbA [4] (read-out: Ki, AsbA, with respect to citric acid), 110 µM; on AsbA [4] (read-out: Ki, AsbA, with respect to polyamine substrate), 170 µM. For the same compound, the “mode of inhibition of AsbA” value on AsbA [4] is on record as “reversible, competitive”.
`CC(=O)[C@H](C)C[C@@H](C)C[C@H](C)CC[C@@H](O)C[C@@H](O)[C@@H](CC(C)C)[C@@H](O)c1cc(O)cc(O)c1` [BmcB, baulamycin B]: the “potency against S. aureus (Newman) cultures compared with BmcA (in words)” value with S. aureus (Newman) is listed as “significantly less potent”. Further, at AsbB, the “inhibition against AsbB (in words)” value was “negligible”. The IC50 was over 1000 µM at AsbB, 19 µM on SbnE [3] and 200 µM on AsbA [5].

(Values after article PMC4028973 (Journal of the American Chemical Society, 2014).)
